# Test results: patent US6403531B1, “Herbicidal synergistic composition and method of weed control” (Syngenta Crop Protection, inc., priority 1997, dated 2002)
# Assays:
# Assay type in all cases: in vivo
# Abutilon [1] = experiment: Pre-emergence herbicidal action
# Excerpt: (§1) A synergistic effect exists whenever the action of the active ingredient combination I and II, III, IV, V, VI, VII, VIII, IX or X is greater than the sum of the actions of the active ingredients applied individually. The herbicidal action to be expected, We, for a given combination of two herbicides can be calculated as follows (see COLBY, S. R. “Calculating synergistic and antagonistic response of herbicide combinations”. Weeds 15, pages 20-22; 1967):
# (§2) We=expected herbicidal action (% herbicidal action in comparison with untreated control) after treatment with the compounds of formula I and II, III, IV, V, VI, VII, VIII, IX or X at a rate of application of p+q kg of active ingredient per hectare.
# (§3) Monocotyledonous and dicotyledonous weeds and cultivated plants are sown in standard soil in plastics pots. Immediately after sowing, the test compounds are applied as an aqueous suspension (500 l of water/ha). The rates of application depend on the optimum concentrations determined under field conditions and greenhouse conditions. Evaluation of the tests is made after 15 and 27 days (DAA=day after application) in % action. 100% denotes that the plants have died, 0% denotes no phytotoxic action.
# Sesbania [2] = experiment: Pre-emergence herbicidal action
# Excerpt: as §1, §2, §3
# Xanthium = experiment: Pre-emergence herbicidal action
# Excerpt: as §1, §2, §3
# cotton = experiment: Pre-emergence herbicidal action (cultivated plant)
# Excerpt: as §1, §2, §3
# Cassia sp. = experiment: Post-emergence herbicidal action
# Excerpt: as §1, §2
# (§4) The test plants are raised in plastics pots under greenhouse conditions as far as the 2- to 3-leaf stage. A standard soil is used as the cultivation substrate. At the 2- to 3-leaf stage, the herbicides are applied individually and as mixtures to the test plants. The test compounds are applied in the form of an aqueous suspension in 500 l of water/ha. The rates of application depend on the optimum concentrations determined under field conditions and greenhouse conditions. Evaluation of the tests is made after 11 and 22 days (DAA=day after application) in % action. 100% denotes that the plants have died, 0% denotes no phytotoxic action.
# Sorghum hal. = experiment: Herbicidal action; conditions: titled pre-emergence (under Example B2)
# Sesbania [3] = experiment: Post-emergence herbicidal action
# Excerpt: as §1, §2, §4
# Solanum = experiment: Post-emergence herbicidal action
# Excerpt: as §1, §2, §4
# Cyperus = experiment: Herbicidal action
# Abutilon [4] = experiment: Post-emergence herbicidal action
# Excerpt: as §1, §2, §4
# Digitaria = experiment: Post-emergence herbicidal action
# Excerpt: as §1, §2, §4
# Sorghum = experiment: Post-emergence herbicidal action
# Excerpt: as §1, §2, §4
# Solanum nigrum = experiment: Herbicidal action; conditions: post-emergence
smiles,measurement,setting,value
CNc1cnn(-c2cccc(C(F)(F)F)c2)c(=O)c1Cl [norflurazon],herbicidal action on Abutilon,"Abutilon [1]; DAA 27, 250 g/ha",60%
same,herbicidal action on Abutilon,"Abutilon [1]; DAA 27, 500 g/ha",60%
same,herbicidal action on Sesbania,"Sesbania [2]; DAA 27, 250 g/ha",10%
same,herbicidal action on Sesbania,"Sesbania [2]; DAA 27, 500 g/ha",30%
same,herbicidal action on Xanthium,"Xanthium; DAA 27, 250 g/ha",10%
same,herbicidal action on Xanthium,"Xanthium; DAA 27, 500 g/ha",35%
same,herbicidal action on cotton (damage),"cotton; DAA 27, 250 g/ha",0%
same,herbicidal action on cotton (damage),"cotton; DAA 27, 500 g/ha",0%
"COc1cc(OC)nc(Sc2cccc(Cl)c2C(=O)[O-])n1.[Na+] [pyrithiobac, pyrithiobac-sodium]",herbicidal action on Cassia sp.,"Cassia sp.; DAA 11, 25 g/ha",50%
same,herbicidal action on Cassia sp.,"Cassia sp.; DAA 11, 50 g/ha",80%
same,herbicidal action on Cassia sp.,"Cassia sp.; DAA 11, 100 g/ha",70%
CCc1cccc(C)c1N(C(=O)CCl)C(C)COC (centres unmarked) [metolachlor],herbicidal action on Sorghum hal.,"Sorghum hal.; DAA 22, 375 g/ha",0%
same,herbicidal action on Sorghum hal.,"Sorghum hal.; DAA 22, 750 g/ha",0%
same,herbicidal action on Sorghum hal.,"Sorghum hal.; DAA 22, 1500 g/ha",0%
CCc1cccc(C)c1N(C(=O)CCl)[C@@H](C)COC [α-metolachlor],herbicidal action on Cassia sp.,"Cassia sp.; DAA 11, 250 g/ha",0%
same,herbicidal action on Cassia sp.,"Cassia sp.; DAA 11, 500 g/ha",0%
same,herbicidal action on Cassia sp.,"Cassia sp.; DAA 11, 1000 g/ha",0%
same,herbicidal action on Sesbania,"Sesbania [3]; DAA 11, 250 g/ha",0%
same,herbicidal action on Sesbania,"Sesbania [3]; DAA 11, 500 g/ha",0%
same,herbicidal action on Sesbania,"Sesbania [3]; DAA 11, 1000 g/ha",0%
CCC(CC)Nc1c([N+](=O)[O-])cc(C)c(C)c1[N+](=O)[O-] [pendimethalin],herbicidal action on Xanthium,"Xanthium; DAA 15, 250 g/ha",0%
same,herbicidal action on Xanthium,"Xanthium; DAA 15, 500 g/ha",0%
same,herbicidal action on Xanthium,"Xanthium; DAA 15, 1000 g/ha",0%
"N#Cc1cc(Br)c(O)c(Br)c1 [bromoxynil, bromoxinil]",herbicidal action on Solanum,"Solanum; DAA 11, 500 g/ha",35%
same,herbicidal action on Solanum,"Solanum; DAA 11, 1000 g/ha",40%
CP(=O)(O)CCC(N)C(=O)O (centres unmarked) [glufosinate],herbicidal action on Cyperus,"Cyperus; post-emergence, DAA 22, 250 g/ha",35%
same,herbicidal action on Abutilon,"Abutilon [4]; DAA 22, 250 g/ha",55%
same,herbicidal action on Digitaria,"Digitaria; DAA 22, 250 g/ha",75%
same,herbicidal action on Sorghum,"Sorghum; DAA 22, 250 g/ha",85%
COc1cc(OC)nc(NC(=O)NOS(=O)c2ncccc2OCC(F)(F)F)n1.[Na+] (centres unmarked) [compound of formula I],herbicidal action on Abutilon,"Abutilon [1]; DAA 27, 3.75 g/ha",50%
same,herbicidal action on Sesbania,"Sesbania [2]; DAA 15, 3.75 g/ha",35%
same,herbicidal action on Sesbania,"Sesbania [2]; DAA 27, 3.75 g/ha",25%
same,herbicidal action on Xanthium,"Xanthium; DAA 15, 3.75 g/ha",85%
same,herbicidal action on Xanthium,"Xanthium; DAA 15, 7.5 g/ha",90%
same,herbicidal action on Xanthium,"Xanthium; DAA 27, 3.75 g/ha",96%
same,herbicidal action on cotton (damage),"cotton; DAA 27, 3.75 g/ha",10%
same,herbicidal action on Cyperus,"Cyperus; post-emergence, DAA 22, 1.88 g/ha",70%
same,herbicidal action on Cyperus,"Cyperus; titled pre-emergence (under Example B2), DAA 11, 3.75 g/ha",50%
same,herbicidal action on Solanum nigrum,"Solanum nigrum; DAA 22, 1.88 g/ha",0%
same,herbicidal action on Solanum nigrum,"Solanum nigrum; DAA 22, 3.75 g/ha",0%
same,herbicidal action on Solanum nigrum,"Solanum nigrum; DAA 22, 7.5 g/ha",15%
same,herbicidal action on Sorghum hal.,"Sorghum hal.; DAA 22, 1.88 g/ha",75%
same,herbicidal action on Abutilon,"Abutilon [4]; DAA 22, 1.88 g/ha",55%
same,herbicidal action on Cassia sp.,"Cassia sp.; DAA 11, 1.88 g/ha",70%
same,herbicidal action on Digitaria,"Digitaria; DAA 22, 1.88 g/ha",15%
same,herbicidal action on Sesbania,"Sesbania [3]; DAA 11, 1.88 g/ha",70%
same,herbicidal action on Solanum,"Solanum; DAA 11, 7.5 g/ha",20%
same,herbicidal action on Sorghum,"Sorghum; DAA 22, 1.88 g/ha",75%
CSc1nc(NC(C)C)nc(NC(C)C)n1 [prometryn],herbicidal action on Sesbania,"Sesbania [2]; DAA 15, 250 g/ha",10%
same,herbicidal action on Xanthium,"Xanthium; DAA 15, 250 g/ha",0%
same,herbicidal action on Solanum nigrum,"Solanum nigrum; DAA 22, 250 g/ha",0%
same,herbicidal action on Solanum nigrum,"Solanum nigrum; DAA 22, 500 g/ha",0%
same,herbicidal action on Solanum nigrum,"Solanum nigrum; DAA 22, 1000 g/ha",20%
CN(C)C(=O)Nc1cccc(C(F)(F)F)c1 [fluometuron],herbicidal action on Cyperus,"Cyperus; titled pre-emergence (under Example B2), DAA 11, 250 g/ha",0%
same,herbicidal action on Cyperus,"Cyperus; titled pre-emergence (under Example B2), DAA 11, 500 g/ha",25%
same,herbicidal action on Cyperus,"Cyperus; titled pre-emergence (under Example B2), DAA 11, 1000 g/ha",20%
CC1(C)CON(Cc2ccccc2Cl)C1=O [clomazone],herbicidal action on Xanthium,"Xanthium; DAA 15, 125 g/ha",10%
same,herbicidal action on Xanthium,"Xanthium; DAA 15, 250 g/ha",25%
same,herbicidal action on Xanthium,"Xanthium; DAA 15, 500 g/ha",60%
